Measurements reported in US12168650B2, “Crystalline forms of 3-(5-(2-hydroxy-2-methylpropoxy)-6-methylpyrazin-2-yl)-1H-indole-7-carbonitrile” (NIDO BIOSCIENCES, INC., priority 2022, dated 2024).

Test: Stability of Form C (Tables 5A-5F)
Type: physicochemical

Cc1nc(-c2c[nH]c3c(C#N)cccc23)cnc1OCC(C)(C)O [Form C, 3-(5-(2-hydroxy-2-methylpropoxy)-6-methylpyrazin-2-yl)-1H-indole-7-carbonitrile]
0.72 area %: Impurities, HPLC: RRT 1.07 (25° C./60% RH, 09 Month)
99.2 area %: Purity, HPLC (25° C./60% RH, 03 Month) | Purity, HPLC (25° C./60% RH, Initial)
0.74 area %: Impurities, HPLC: RRT 1.07 (25° C./60% RH, 12 Month)
0.77 area %: Impurities, HPLC: RRT 1.07 (25° C./60% RH, 03 Month) | Impurities, HPLC: RRT 1.07 (25° C./60% RH, Initial)
<0.05 wt %: Water content (25° C./60% RH, 01 Month) | Water content (25° C./60% RH, 03 Month) | Water content (25° C./60% RH, 06 Month) | Water content (25° C./60% RH, 09 Month) | Water content (25° C./60% RH, 12 Month) | Water content (25° C./60% RH, Initial)
99.3 area %: Purity, HPLC (25° C./60% RH, 01 Month) | Purity, HPLC (25° C./60% RH, 06 Month) | Purity, HPLC (25° C./60% RH, 09 Month) | Purity, HPLC (25° C./60% RH, 12 Month)
99.7 wt %: Assay, HPLC (40° C./75% RH, 01 Month)
99.4 wt %: Assay, HPLC (25° C./60% RH, 09 Month) | Assay, HPLC (25° C./60% RH, 12 Month)
<0.05 area %: Impurities, HPLC: A (25° C./60% RH, 01 Month) | Impurities, HPLC: B (25° C./60% RH, 01 Month) | Impurities, HPLC: C (25° C./60% RH, 01 Month) | Impurities, HPLC: D (25° C./60% RH, 01 Month) | Impurities, HPLC: SM1 (25° C./60% RH, 01 Month) | Impurities, HPLC: SM2 (25° C./60% RH, 01 Month) | Impurities, HPLC: Unidentified impurity (25° C./60% RH, 01 Month) | Impurities, HPLC: A (25° C./60% RH, 03 Month) | Impurities, HPLC: B (25° C./60% RH, 03 Month) | Impurities, HPLC: C (25° C./60% RH, 03 Month) | Impurities, HPLC: D (25° C./60% RH, 03 Month) | Impurities, HPLC: SM1 (25° C./60% RH, 03 Month) | Impurities, HPLC: SM2 (25° C./60% RH, 03 Month) | Impurities, HPLC: Unidentified impurity (25° C./60% RH, 03 Month) | Impurities, HPLC: A (25° C./60% RH, 06 Month) | Impurities, HPLC: B (25° C./60% RH, 06 Month) | Impurities, HPLC: C (25° C./60% RH, 06 Month) | Impurities, HPLC: D (25° C./60% RH, 06 Month) | Impurities, HPLC: SM1 (25° C./60% RH, 06 Month) | Impurities, HPLC: SM2 (25° C./60% RH, 06 Month) | Impurities, HPLC: Unidentified impurity (25° C./60% RH, 06 Month) | Impurities, HPLC: A (25° C./60% RH, 09 Month) | Impurities, HPLC: B (25° C./60% RH, 09 Month) | Impurities, HPLC: C (25° C./60% RH, 09 Month) | Impurities, HPLC: D (25° C./60% RH, 09 Month) | Impurities, HPLC: SM1 (25° C./60% RH, 09 Month) | Impurities, HPLC: SM2 (25° C./60% RH, 09 Month) | Impurities, HPLC: Unidentified impurity (25° C./60% RH, 09 Month) | Impurities, HPLC: A (25° C./60% RH, 12 Month) | Impurities, HPLC: B (25° C./60% RH, 12 Month) | Impurities, HPLC: C (25° C./60% RH, 12 Month) | Impurities, HPLC: D (25° C./60% RH, 12 Month) | Impurities, HPLC: SM1 (25° C./60% RH, 12 Month) | Impurities, HPLC: SM2 (25° C./60% RH, 12 Month) | Impurities, HPLC: Unidentified impurity (25° C./60% RH, 12 Month) | Impurities, HPLC: A (25° C./60% RH, Initial) | Impurities, HPLC: B (25° C./60% RH, Initial) | Impurities, HPLC: C (25° C./60% RH, Initial) | Impurities, HPLC: D (25° C./60% RH, Initial) | Impurities, HPLC: SM1 (25° C./60% RH, Initial) | Impurities, HPLC: SM2 (25° C./60% RH, Initial) | Impurities, HPLC: Unidentified impurity (25° C./60% RH, Initial) | Impurities, HPLC: A (40° C./75% RH, 01 Month)
0.71 area %: Impurities, HPLC: RRT 1.07 (25° C./60% RH, 01 Month)
0.73 area %: Impurities, HPLC: RRT 1.07 (25° C./60% RH, 06 Month)
